The record followed here is patent publication US20180193327A1, “PROPHYLACTIC LEUKOTRIENE INHIBITOR AND IMPLANT DISPLACEMENT THERAPY FOR PREVENTION AND TREATMENT OF CAPSULAR CONTRACTURE IN SILICONE BREAST AUGMENTATION” (priority 2017, published 2018).

Structures are written as SMILES.

A short description of data set [1]: Side effects and discontinuation reported by patients taking leukotriene inhibitors after primary augmentation. Type of data set: in vivo, patients (women). As to conditions: human, in vivo. As to the method:
(§1) Patients that were administered Singulair were treated according to the method described in FIGS. 1 and 2 of the present disclosure. First, patients were evaluated clinically to see if they were a candidate for breast augmentation with physical examination and medical history. The medical history review included discussion and review of liver health, current medications, and potential contraindications or drug interactions with leukotriene inhibitors. Patients were then provided an informed consent for the use of Singulair, 10 mg daily. The informed consent reviewed the potential benefits and risks of this medication which is taken as an off-label indication. Breast augmentation was performed with either smooth or textured silicone or saline implants. On the day following surgery, Singulair therapy is initiated, 10 mg QD. In the first week following surgery, the implant displacement therapy protocol was begun for patients with smooth surface silicone implants. The implant displacement therapy protocol may also be performed, if indicated, for patients with mildly textured breast implants, but not with moderately textured or highly textured devices. Monitoring for side effects from Singulair was conducted by educating patients as to the common side effects and discussing with patients noted side effects. Singulair can be discontinued if the side effects are significant. At thirty days postoperatively, the softness of the breast implants as well as the implant movement and position was evaluated to determine if capsular contracture was present. Two more months of Singulair was prescribed. Following three total months of therapy, the breasts were evaluated for the presence of capsular contracture. Patients without clinical capsular contracture, Baker I and II, were completed with therapy. Patients with clinical capsular contracture, either Baker III or IV, were treated with an additional three months of Singulair therapy as prescribed with the continuation of implant displacement therapy protocol. If patients declined to take Singulair or had side effects from the medication, implant displacement therapy protocol was continued and patients were offered 800 units-1000 units of Vitamin E daily in lieu of Singulair.
Patients that were administered Accolate were treated according to the method described in FIGS. 1 and 2 of the present disclosure. First, patients were evaluated clinically to see if they were a candidate for breast augmentation with physical examination and medical history. The medical history review included discussion and review of liver health, current medications, and potential contraindications or drug interactions with leukotriene inhibitors. Patients were then provided an informed consent for the use of Accolate (Zafirlukast), 20 mg twice daily. Patients were counseled to take the medication at least one hour before meals. The informed consent reviews the potential benefits and risks of this medication which is taken as an off-label indication. Breast augmentation was performed with either smooth or textured silicone or saline implants. On the day following surgery, Accolate therapy was initiated, 20 mg BID. In the first week following surgery, the implant displacement therapy protocol was begun for patients with smooth surface silicone implants. The implant displacement therapy protocol may also be performed, if indicated, for patients with mildly textured breast implants, but not with moderately textured or highly textured devices. […]

The subject of data set [2] is capsular contracture in patients undergoing primary silicone gel breast augmentation. The data set can be described thus: Capsular contracture (Baker scale) at one year after primary silicone gel breast augmentation, retrospective review. Type of data set: in vivo, patients (women). Here is the method:
The study was performed with a retrospective review of 1122 consecutive women undergoing primary, silicone gel breast augmentation. Over time, the author added leukotriene inhibitor therapy to the postoperative treatment of patients. The first group of patients were treated without leukotriene therapy. Consecutive patients agreeing to the off-label use of leukotriene inhibitors were then studied. The second group of consecutive patients was offered Singulair therapy postoperatively while all other aspects of the surgical technique and care remained the same. Finally, the author offered Accolate therapy to the final group of patients undergoing breast augmentation.
Patients chose augmentation with either a periareolar or inframammary approach. Silicone breast augmentation procedures were performed using a standardized, dual plane technique. All patients were treated with preoperative intravenous antibiotics, either a one-gram dose of cephazolin or 600 mg of clindamycin, selected based on allergy profiles. Prior to insertion of implants, triple-antibioic irrigation (50,000 U bacitracin, 1 g Ancef, 80 mg gentamicin) with the addition of 50 ml of povidone-iodine in 500 ml of normal saline was utilized. All implants were placed with power-free glove changes, and inserted through a skin barrier/nipple shield using Tegaderm dressings. The implant displacement therapy protocol was initiated on post-operative day two.
as §1
Patients that were administered Accolate were treated according to the method described in FIGS. 1 and 2 of the present disclosure. First, patients were evaluated clinically to see if they were a candidate for breast augmentation with physical examination and medical history. […]

[3] abbreviates: one year following silicone gel breast augmentation.

Turning to `CC(C)(O)c1ccccc1CC[C@@H](SCC1(CC(=O)O)CC1)c1cccc(/C=C/c2ccc3ccc(Cl)cc3n2)c1` [Singulair, Montelukast], the “Percentage of patients discontinuing the medication because of (minor) side effects or cost” value in data set [1] (female, 3 months) was determined as 2.5%. Also, the “Common side effects reported by patients” value in data set [1] is listed as “headache, GI symptoms, fatigue, rash”. Also, the “% of Patients with Capsular Contracture” value in data set [2] (one year following primary silicone gel breast augmentation, Baker grade III or IV, three months therapy plus implant displacement protocol) worked out at 3.27%. Further, in data set [2] (setting [3]), the “Percentage of patients demonstrating capsular contracture, inframammary incision” value is listed as 2.08%; the “Percentage of patients demonstrating capsular contracture, periareolar incision” value is listed as 3.81%; the “Percentage of patients demonstrating capsular contracture, total (both incisions)” value was determined as 3.27%.
